Patent US7521589B2, “Developmental animal model of temporal lobe epilepsy” (University of Prince Edward Island, priority 2003, dated 2009)

Tests used:
Type in all cases: in vivo, rat
Sprague Dawley rats [1] = assay: NIS-L syndrome during Novel Water Maze (NWM) testing; conditions: for animals exhibiting NIS-L syndrome in NWM: tested PND 240; for animals displaying NIS-L syndrome during NWM testing: separate cohort, tested at 15 months
Description: To determine if the syndrome could be elicited by novel stimuli other than the MWM, all rats were tested in the Novel Water Maze (NWM) (Kant, G. J., Pharmacol. Biochem. […]
The Novel Water Maze (NWM) (Kant, G. J., Pharmacol. Biochem. Behav. [1993] 44:287-295) was selected based on its provision of a novel environment within which to evaluate the novelty impact on the precipitation of NIS-L. Animals were tested for 6 consecutive swim trials of 60 sec duration and scored for the presence or absence of NIS-L behaviours, by an observer blind to treatment during the 120 sec inter-trial period.

Sprague Dawley rats [2] = assay: NIS-L syndrome in open field arena; conditions: male rats; for animals displaying NIS-L in open field arena: tested PND 270
Description: To determine if the syndrome could be elicited by novel stimuli other than the MWM, all rats were tested in the Novel Water Maze (NWM) (Kant, G. J., Pharmacol. Biochem. Behav. [1993] 44:287-295) approximately 120 days after the MWM testing (i.e. PND 240).
The open field apparatus consisted of a 1.5 m diameter circular arena sectioned into 32 grids (16 central grids: 9 cm×9 cm; 16 peripheral grids). The open field was chosen as another environment that provided novelty while at the same time being less physiologically challenging than the previously described two water maze tasks. All rats were given a single 10 min trial in the open field arena and scored for the presence or absence of NIS-L by an experimenter blind to treatment. All testing procedures were conducted according to the guidelines of the Canadian Council on Animal Care.

Sprague Dawley rats [3] = assay: Daily assessment of pups until weaning for overt toxicity and weight gain; conditions: 5 or 20 μg/kg s.c. daily PND 8-PND 14
Description: Within 24 hr of birth, offspring of untimed-pregnant Sprague Dawley rats (Charles River Laboratories, St. Constant, PQ) were culled to 10 pups/litter (5 males and 5 females). From post-natal day (PND) 8-PND 14, pups were weighed and given a single daily injection (s.c.; 10 ml/kg) of either saline, or 5 or 20 μg/kg domoic acid (DOM). These doses are well below those normally required to induce toxicity in animals of this age (Doucette, T. A. et al., Neurotox. Teratol. [2003] 25:473-479, and Doucette, T. A., et al., Neurotox. Teratol. [2000] 22:863-869). Pups were assessed daily until weaning (on PND 22) for overt signs of toxicity, and all pre- and post-weaning testing was conducted with the experimenter blind to treatment. All procedures were conducted in accordance with the guidelines of the Canadian Council on Animal Care. […] Rats received no additional drug treatment after PND 14. On PND 120, animals were tested for spatial learning and memory in the Morris Water Maze (MWM) (8 trials/day over 6 consecutive days), using a standard reversal procedure (McNamara, R. K. and Skelton, R. W., Brain Res. Brain Res. Rev. [1993] 18:33-49). […]

Sprague Dawley rats [4] = assay: NIS-L syndrome during Morris Water Maze (MWM) testing
Description: Within 24 hr of birth, offspring of untimed-pregnant Sprague Dawley rats (Charles River Laboratories, St. Constant, PQ) were culled to 10 pups/litter (5 males and 5 females). […] These doses are well below those normally required to induce toxicity in animals of this age (Doucette, T. A. et al., Neurotox. Teratol. [2003] 25:473-479, and Doucette, T. A., et al., Neurotox. Teratol. [2000] 22:863-869). Pups were assessed daily until weaning (on PND 22) for overt signs of toxicity, and all pre- and post-weaning testing was conducted with the experimenter blind to treatment. All procedures were conducted in accordance with the guidelines of the Canadian Council on Animal Care. […] Rats received no additional drug treatment after PND 14. On PND 120, animals were tested for spatial learning and memory in the Morris Water Maze (MWM) (8 trials/day over 6 consecutive days), using a standard reversal procedure (McNamara, R. K. and Skelton, R. W., Brain Res. Brain Res. Rev. [1993] 18:33-49). While on the escape platform during the 60 second inter-trial interval, a significant number of DOM-treated rats presented with abnormal behaviour characterized by a combination of hunched body posture, facial clonus, mastication with tongue-protrusion, repetitive head extensions and bobbing, repetitive eye blinking/squinting, and vibrissae and ear twitching, often in combination with forelimb clonus. Presentation of all of the above behaviours was termed “novelty-induced seizure-like (NIS-L) syndrome”. Of note, the expression of this syndrome was not consequent to earlier drug-induced toxicity or seizures, nor was it spontaneous.
The Morris Water Maze (MWM) consisted of a circular tank measuring 1.5 m in diameter. Water temperature was maintained at approximately 21° C. and was made opaque by a layer of polypropylene pellets floated on the surface. Four points around the edge of the pool were arbitrarily designated as north (N), south (S), east (E), and west (W), allowing the apparatus to be divided into 4 corresponding quadrants (NE, SE, NW, SW). A clear plexiglass escape platform was submerged approximately 2 cm below the water surface and placed, initially, in the NE quadrant of the maze (alternate locations for the reversal task were implemented on Day 3 and Day 5). Extra-maze cues consisted of laboratory furniture and lights (held constant throughout the experiment). A video camera was mounted above the center of the pool and all performance was recorded for subsequent analyses. […] Escape latencies and inter-trial behaviour was recorded by observers blind to experimental treatment.

| SMILES | animals exhibiting NIS-L syndrome in NWM (Sprague Dawley rats [1]; female rats, 5 μg/kg PND 8-14) | animals exhibiting NIS-L syndrome in NWM (Sprague Dawley rats [1]; female rats, 20 μg/kg PND 8-14) | animals displaying NIS-L syndrome during NWM testing (Sprague Dawley rats [1]; female rats, 20 μg/kg PND 8-14) | animals exhibiting NIS-L syndrome in NWM (Sprague Dawley rats [1]; male rats, 5 μg/kg PND 8-14) | animals exhibiting NIS-L syndrome in NWM (Sprague Dawley rats [1]; male rats, 20 μg/kg PND 8-14) | animals displaying NIS-L syndrome during NWM testing (Sprague Dawley rats [1]; male rats, 20 μg/kg PND 8-14) | animals displaying NIS-L in open field arena (Sprague Dawley rats [2]; 5 μg/kg PND 8-14) | animals displaying NIS-L in open field arena (Sprague Dawley rats [2]; 20 μg/kg PND 8-14) | weight gain between groups (Sprague Dawley rats [3]) | signs of physical or behavioural toxicity prior to weaning (Sprague Dawley rats [3]; pups assessed until PND 22) | rats with NIS-L syndrome (study parallel in design to Example 1) (Sprague Dawley rats [4]; female rats, 25 μg/kg neonatally) | rats with NIS-L syndrome (study parallel in design to Example 1) (Sprague Dawley rats [4]; female rats, 100 μg/kg neonatally) | rats with NIS-L syndrome (study parallel in design to Example 1) (Sprague Dawley rats [4]; male rats, 25 μg/kg neonatally) | rats with NIS-L syndrome (study parallel in design to Example 1) (Sprague Dawley rats [4]; male rats, 100 μg/kg neonatally) | rats exhibiting NIS-L syndrome in open field arena (Sprague Dawley rats [2]; 25 μg/kg neonatally) | rats exhibiting NIS-L syndrome in open field arena (Sprague Dawley rats [2]; 100 μg/kg neonatally) |
| --- | --- | --- | --- | --- | --- | --- | --- | --- | --- | --- | --- | --- | --- | --- | --- | --- |
| C/C(=C/C=C/[C@@H](C)C(=O)O)[C@H]1CN[C@H](C(=O)O)[C@H]1CC(=O)O [DOM, domoic acid] | 33.3% | 100% | 50% | 33.3% | 66.7% | 50% | 50% | 66.7% | no significant differences in weight gain | None of the pups displayed any signs of physical or behavioural toxicity | – | – | – | – | – | – |
| C=C(C)[C@H]1CN[C@H](C(=O)O)[C@H]1CC(=O)O [KA, kainic acid] | – | – | – | – | – | – | – | – | – | – | 16.7% | 57.1% | 62.5% | 62.5% | 62.5% | 33.3% |
